Reference: patent US6407081B1, “Method for inhibiting cytokine production by cells” (Previsan AG, priority 1997, dated 2002)

Key:
IL-5 = IL-5 production by purified T lymphocytes (Example 3); assay type: cell-based, human; settings: mean of 2 donors
Protocol: (§1) PBMC from three healthy donors are purified by density gradient […] (LymphoPrep). The T lymphocytes are obtained from 15.10^6 PBMC incubated for 20 to 30 minutes in a waterbath at 37° C. with 0.8 ml of a mixture of LymphoKwik® (One Lambda, Inc., CA, USA). This latter substance is a mixture of complement and specific antibody for antigen units of the cell membrane which lyses the unwanted cells (B lymphocytes, monocytes, etc.). The cells are centrifuged and then washed twice.
(§2) These cultures are treated with various concentrations of ADA.
(§3) In Examples 3 and 4, the results are stated as a percentage taking the medium without ADA as 100%. The concentrations corresponding to 100% are respectively 90,000 pg/ml for IL-2, 1100 pg/ml for IL-5, 1900 pg/ml for IFN-γ and 2870 pg/ml for TNF-α. The results are the mean of independent ELISA assays.

IL-2 = IL-2 production by purified CD4 T lymphocytes stimulated by PMA + anti-CD28 (Example 4); assay type: cell-based, human; settings: for IL-2 in % relative to control: purified CD4 T lymphocytes, PMA + anti-CD28, mean of 2 donors
Protocol: (§4) Purified CD4 T lymphocytes (90% purity) stimulated by PMA (phorbol myristate acetate)+anti-CD28 antibodies from healthy donors are treated with various concentrations of ADA.
as §3

IFN-γ [1] = assay: Interferon-γ production by purified T lymphocytes (Example 3); assay type: cell-based, human; settings: mean of 3 donors
Protocol: as §1, §2, §3

IL-4 = assay: In vivo serum IL-4 release after anti-CD3 145-2C11 mAb (Example 5); parameters: species or system BALB/C mice; settings: ADA 100 mg/kg single injection one day before 145-2C11 mAb; sera at 2, 4, 8, 24 h; FIG. 2
Protocol: A single intraparenteral injection of azodicarbon-amide (ADA) at a dose of 100 mg/kg bodyweight or corresponding carrier is made into BALB/C mice (Harlan, Zeist, Netherlands) one day before intraparenteral inoculation of 25 μg of hamster 145-2C11 mAb, an anti-mouse CD3 mAb which brings about massive in vivo activation of polyclonal T cells, resulting in systemic cytokine release. Sera are collected 2, 4, 8 and 24 hours after the anti-CD3 treatment and the cytokine (IL-2, IL-4) levels are determined by an ELISA test (Genzyme).
FIGS. 1 and 2 are graphs showing, on the y-axis, the quantities of IL-2 and IL-4 in the serum as a mean of 5 test animals. […] The empty bars show the results obtained with the carrier and the shaded bars show those obtained with prior ADA treatment.

TNF-α = TNF-α production by purified CD4 T lymphocytes stimulated by PMA + anti-CD28 (Example 4); assay type: cell-based, human; settings: for TNF-α in % relative to control: purified CD4 T lymphocytes, PMA + anti-CD28, 5 donors
Protocol: as §4, §3

IFN-γ [2] = assay: Interferon-γ production by purified CD4 T lymphocytes stimulated by PMA + anti-CD28 (Example 4); assay type: cell-based, human; settings: for IFN-γ in % relative to control: purified CD4 T lymphocytes, PMA + anti-CD28, mean of 2 donors
Protocol: as §4, §3

IFN-γ [3] = assay: IFN-γ production by splenocytes of ovalbumin-sensitised rats treated orally (Example 8); assay type: in vivo, Brown-Norway rats; settings: ADA orally 500 and 1000 mg/kg twice daily, FIG. 4
Protocol: Brown-Norway rats are actively sensitised with 5% ovalbumin in 0.9% NaCl. 24 hours later, bronchial reactivity to metacholine is measured on the anaesthetised rats. Immediately measurement of bronchial reactivity is complete, splenocytes are taken from these rats and cultured to determine IFN-γ production by these cells.
ADA is administered 24 hours before the beginning of the ovalbumin sensitisation phase and daily throughout the duration of the test, except for the days of the measurements. The ADA is administered orally in suspension in 1% methylcellulose at a twice daily dosage of 500 mg/kg and 1000 mg/kg bodyweight.
The quantities of IFN-γ are plotted on the y-axis in pg/mg of protein. On the x-axis, the empty bars A to F correspond to the following experiments: […]

interferon-γ = assay: Interferon-γ production by PHA-activated PBMC (Example 2); assay type: cell-based, human; settings: for Interferon-γ content as a percentage of the control: PHA-activated PBMC, 72 h
Protocol: Peripheral mononuclear blood cells (PMBC) from five healthy human donors are isolated in the conventional manner from 50 ml of their blood and then purified by density gradient centrifugation (Lymphoprep). The cells (5.10^6 cells/ml) are activated by 0.3 μg/ml of phytohaemagglutinin (PHA) and cultured for 72 hours at 37° C. in the presence of various concentrations of ADA (20, 10, 5, 1, 0.2 and 0.04 μg/ml). The culture medium consists of RPMI 1640 complemented with 10% foetal calf serum and glutamine and contains mercaptoethanol. The ADA solutions are prepared in dimethyl sulfoxide (DMSO), the working concentration of DMSO during the experiments being 0.1%. Said experiments are performed on 96 well plates (200 μl/well) and, once the plates have been centrifuged at 1500 revolutions per minute for 10 minutes, the supernatants are harvested and the IL-5 content thereof analysed by an ELISA immunoenzymatic assay.
Starting from the same cell cultures as those used in Example 1, the presence of interferon-γ was investigated after treatment with the stated concentrations of ADA.

NC(=O)N=NC(N)=O [ADA, azodicarbon-amide]
IL-5 in % relative to control (IL-5; ADA 1 μg/ml): 67 % relative to control
IL-5 in % relative to control (IL-5; ADA 5 μg/ml): 60 % relative to control
IL-5 in % relative to control (IL-5; ADA 10 μg/ml): 40 % relative to control
IL-5 in % relative to control (IL-5; ADA 20 μg/ml): 16 % relative to control
IL-2 in % relative to control (IL-2; ADA 1 μg/ml): 82 % relative to control
IL-2 in % relative to control (IL-2; ADA 5 μg/ml): 30 % relative to control
IL-2 in % relative to control (IL-2; ADA 10 μg/ml): 18 % relative to control
IL-2 in % relative to control (IL-2; ADA 20 μg/ml): 10 % relative to control
secretion of IL-2 by lymphocytes (IL-2; concentrations lower than 20 μg/ml of ADA, Examples 3 and 4): Even lower concentrations inhibit
IFN-γ in % relative to control (IFN-γ [1]; ADA 1 μg/ml): 82 % relative to control
IFN-γ in % relative to control (IFN-γ [1]; ADA 5 μg/ml): 34 % relative to control
IFN-γ in % relative to control (IFN-γ [1]; ADA 10 μg/ml): 14 % relative to control
IFN-γ in % relative to control (IFN-γ [1]; ADA 20 μg/ml): 4 % relative to control
release of IL-4 into serum (IL-4): significant reduction
production of TNF-α (TNF-α; 20 μg/ml of ADA, donors of Example 4): inhibited
TNF-α in % relative to control (TNF-α; ADA 1 μg/ml): 90 % relative to control
TNF-α in % relative to control (TNF-α; ADA 5 μg/ml): 48 % relative to control
TNF-α in % relative to control (TNF-α; ADA 10 μg/ml): 32 % relative to control
TNF-α in % relative to control (TNF-α; ADA 20 μg/ml): 14 % relative to control
production of interferon-γ (IFN-γ [2]; 20 μg/ml of ADA, donors of Examples 3 and 4): inhibited
IFN-γ in % relative to control (IFN-γ [2]; ADA 1 μg/ml): 73 % relative to control
IFN-γ in % relative to control (IFN-γ [2]; ADA 5 μg/ml): 36 % relative to control
IFN-γ in % relative to control (IFN-γ [2]; ADA 10 μg/ml): 15 % relative to control
IFN-γ in % relative to control (IFN-γ [2]; ADA 20 μg/ml): 12 % relative to control
production of INF-γ by splenocytes (IFN-γ [3]): inhibitory effect
Interferon-γ content as a percentage of the control (interferon-γ; ADA 0.04 μg/ml, Donor 1): 62 % of control
Interferon-γ content as a percentage of the control (interferon-γ; ADA 0.04 μg/ml, Donor 2): 53 % of control
Interferon-γ content as a percentage of the control (interferon-γ; ADA 0.04 μg/ml, Donor 3): 99 % of control
Interferon-γ content as a percentage of the control (interferon-γ; ADA 0.04 μg/ml, Donor 4): 82 % of control
Interferon-γ content as a percentage of the control (interferon-γ; ADA 0.04 μg/ml, Donor 5): 38 % of control
Interferon-γ content as a percentage of the control (interferon-γ; ADA 0.04 μg/ml, Mean of donors): 67 % of control
Interferon-γ content as a percentage of the control (interferon-γ; ADA 0.2 μg/ml, Donor 1): 112 % of control
Interferon-γ content as a percentage of the control (interferon-γ; ADA 0.2 μg/ml, Donor 2): 111 % of control
Interferon-γ content as a percentage of the control (interferon-γ; ADA 0.2 μg/ml, Donor 3): 70 % of control
Interferon-γ content as a percentage of the control (interferon-γ; ADA 0.2 μg/ml, Mean of donors (donors 4, 5 not given)): 98 % of control
Interferon-γ content as a percentage of the control (interferon-γ; ADA 1 μg/ml, Donor 1): 87 % of control
Interferon-γ content as a percentage of the control (interferon-γ; ADA 1 μg/ml, Donor 2): 98 % of control
Interferon-γ content as a percentage of the control (interferon-γ; ADA 1 μg/ml, Donor 3): 49 % of control
Interferon-γ content as a percentage of the control (interferon-γ; ADA 1 μg/ml, Mean of donors (donors 4, 5 not given)): 78 % of control
Interferon-γ content as a percentage of the control (interferon-γ; ADA 5 μg/ml, Donor 1): 68 % of control
Interferon-γ content as a percentage of the control (interferon-γ; ADA 5 μg/ml, Donor 2): 128 % of control
Interferon-γ content as a percentage of the control (interferon-γ; ADA 5 μg/ml, Donor 3): 62 % of control
Interferon-γ content as a percentage of the control (interferon-γ; ADA 5 μg/ml, Donor 4): 57 % of control
Interferon-γ content as a percentage of the control (interferon-γ; ADA 5 μg/ml, Donor 5): 25 % of control
Interferon-γ content as a percentage of the control (interferon-γ; ADA 5 μg/ml, Mean of donors): 68 % of control
Interferon-γ content as a percentage of the control (interferon-γ; ADA 10 μg/ml, Donor 1): 23 % of control
Interferon-γ content as a percentage of the control (interferon-γ; ADA 10 μg/ml, Donor 2): 169 % of control
Interferon-γ content as a percentage of the control (interferon-γ; ADA 10 μg/ml, Donor 3): 43 % of control
Interferon-γ content as a percentage of the control (interferon-γ; ADA 10 μg/ml, Mean of donors (donors 4, 5 not given)): 78 % of control
Interferon-γ content as a percentage of the control (interferon-γ; ADA 20 μg/ml, Donor 1): 21 % of control
Interferon-γ content as a percentage of the control (interferon-γ; ADA 20 μg/ml, Donor 2): 86 % of control
Interferon-γ content as a percentage of the control (interferon-γ; ADA 20 μg/ml, Donor 3): 40 % of control
Interferon-γ content as a percentage of the control (interferon-γ; ADA 20 μg/ml, Donor 4): 25 % of control
Interferon-γ content as a percentage of the control (interferon-γ; ADA 20 μg/ml, Donor 5): 16 % of control
Interferon-γ content as a percentage of the control (interferon-γ; ADA 20 μg/ml, Mean of donors): 38 % of control
inhibition of interferon-γ production, number of donors (interferon-γ; PBMC of 5 donors, ADA 0.04-20 μg/ml): inhibition is observed in 4 out of 5 donors
